# Experiments:
# [1] = oral bioavailability of phosphate prodrug versus active drug; format: in vivo; settings: prodrug with progroup —CH2—O—P(O)(OH)2 compared with Compound 1
# [2] = water solubility in aqueous buffer under physiological conditions; settings: for solubility: aqueous buffer
oral bioavailability [1],solubility [2] [µg/mL],"solubility relative to active drug (Compound 1) ([2]; aqueous buffer under physiological conditions, prodrug vs Compound 1)",SMILES
increased dramatically,> 5000,approximately 2000 times greater,COc1cc(Nc2ncc(F)c(Nc3ccc4c(n3)N(COP(=O)(O)O)C(=O)C(C)(C)O4)n2)cc(OC)c1OC [Compound 4]
,1 to 2,,"COc1cc(Nc2ncc(F)c(Nc3ccc4c(n3)NC(=O)C(C)(C)O4)n2)cc(OC)c1OC [Compound 1, N4-(2,2-Dimethyl-3-oxo-4H-5-pyrid[1,4]oxazin-6-yl)-5-fluoro-N2-(3,4,5-trimethoxyphenyl)-2,4-pyrimidinediamine]"

# From patent US20260199364A1, “USE OF A SYK INHIBITOR FOR THE TREATMENT OF SICKLE CELL DISEASE” (Rigel Pharmaceuticals, Inc., priority 2023, published 2026)
